Data reported in patent publication US20230210903A1, “HYPOXIA-RESISTANT NATURAL KILLER CELLS” (ONK THERAPEUTICS LIMITED, priority 2020, published 2023).

Key:
[1] = test system: phosphorylation of ERK and STAT3; assay: Western blotting of ERK and STAT3 phosphorylation in hypoxic KHYG-1 cells; type: cell-based; details: hypoxic KHYG-1 cells pre-treated with 5 μM for 2 h
Protocol: Hypoxic KYHG-1 cells were pre-treated with 5 μM TPI-1 for 2 h, and then the cells were collected for western blotting analysis.
For western blotting, treated and untreated KHYG-1 and NK92 cells were lysed in buffer containing 50 mM Tris, 150 mM NaCl, 1% Triton X-100, 1% sodium deoxycholate, 0.1% SDS and protease inhibitors on ice for 30 min. Lysates were centrifuged at 12,000 rpm for 15 min, and supernatants were collected. Protein concentration was determined by the BCA protein assay kit (HEART Biotech, #WB003). Equal amounts of protein were loaded and separated on sodium dodecyl sulfate-polyacrylamide gel electrophoresis gel, and transferred onto a PVDF membrane (Millipore, #IPVH00010). After blocking for 1 h with 5% non-fat milk in PBS with 0.1% Tween-20 at room temperature, the membrane was incubated with primary antibody at 4° C. overnight. Immunoblots were visualized using HRP-conjugated secondary antibodies and the ECL Western Blot Detection kit (Phygene Life Sciences, #PH0353).

K562 cells = details: KHYG-1 pretreated with 10 μM for 6 h, then K562 at different E:T ratios for 4 h
Protocol: Statistical analysis showing the effects of ERK and STAT3 inhibition on NK cells cytotoxicity against K562 cells (n=3, * P<0.05, ** P<0.01). KHYG-1 cells were pretreated with 10 μM U0126 and 10 μM CPT for 6 h and then incubated with K562 at different E:T ratios for 4 h.
(e) Flow cytometric analysis of the effects of TPI-1 on the NK cell cytotoxicity. Left panel: representative flow cytometry results of TPI-1 on the cytotoxicity of KHYG-1 cells. KHYG-1 cells were pretreated with 5 μM TPI-1 for 2 h, and then incubated with K562 cells at different E:T ratios for 4 h. Right panel: statistical analysis of the effects of TPI-1 on KHYG-1 cell cytotoxicity against K562 cells (n=3, * P<0.05).
(b) Statistical analysis of the effects of knocking down SHP-1 on NK cells cytotoxicity against K562 cells (n=3, * P<0.05). […]
Prior to the assay, NK cells and tumour cells were individually pre-incubated for 24 h at 5% CO2 with 20% or 1% 02 first. […] After the 4 h incubation, samples were harvested and washed followed by a combinational staining with CD2-APC, Annexin V-FITC as well as Sytox Green, in which CD2 was used to distinguish effector from target cells, and target cell death was detected with Annexin V-FITC and Sytox Green. A minimum of 10,000 target events were collected per sample, and the results were analyzed using Flowjo v7.6.2.

KHYG-1 cells = assay: Flow cytometry of activating receptors on NK cell surface, KHYG-1; type: cell-based; details: 10 μM inhibitor for 24 h
Protocol: (§1) Hypoxia diminishes the phosphorylation level of ERK and STAT3.
(§2) The expression of NK cell cytotoxicity effector molecules and activating receptors was analyzed by flow cytometry. For membrane staining, 5×10^5 cells were collected and washed with staining buffer (PBS containing 0.1% NaN3 and 0.1% BSA) three times. The cells were then incubated for 30 min on ice, according to the instructions provided with the respective antibodies. After washing 3 times with cell stain buffer, the cells were resuspended in 300 μL staining buffer in the presence of Sytox Green or 7-AAD, which were used to gate out dead cells. Acquisition of 10,000 cells per reaction was performed using a CytoFLEX Cytometer (Beckman Coulter Life Sciences). Data were analyzed with Flowjo v7.6.2 (Tree Star). For intracellular staining, 5×10^5 cells were collected and fixed with 1 mL 1% paraformaldehyde in PBS for 15 minutes at room temperature. After washing 3 times with cell stain buffer, the fixed cells were then resuspended in 2 mL permeabilization buffer (0.1% saponin in cell staining buffer) and incubated for 30 min at room temperature. The cells were collected again by centrifugation, stained with the antibody at an optimal working concentration in permeabilization buffer for 15 min on ice. […]

NK-92 cells = assay: Flow cytometry of activating receptors on NK cell surface, NK-92; type: cell-based; details: 10 μM inhibitor for 24 h
Protocol: as §1, §2

DR4 = DR4 (Homo sapiens, UniProt O00220); details: surface plasmon resonance; WO 2009/077857; cited from earlier work
decoy receptor DcR1 = target: T1, decoy receptor DcR1 (Homo sapiens, UniProt O14798); details: surface plasmon resonance; WO 2009/077857; cited from earlier work
T1 sequence (O14798 26-236): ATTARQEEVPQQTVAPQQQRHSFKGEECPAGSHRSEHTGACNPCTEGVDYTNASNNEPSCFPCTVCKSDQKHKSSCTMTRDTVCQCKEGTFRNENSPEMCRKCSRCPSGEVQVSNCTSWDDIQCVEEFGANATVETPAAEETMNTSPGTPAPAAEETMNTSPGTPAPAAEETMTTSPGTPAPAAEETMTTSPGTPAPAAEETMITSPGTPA

DcR2 = target: T2, DcR2 (Homo sapiens, UniProt Q9UBN6); details: compared with wildtype TRAIL; cited from earlier work
T2 sequence (Q9UBN6 56-386): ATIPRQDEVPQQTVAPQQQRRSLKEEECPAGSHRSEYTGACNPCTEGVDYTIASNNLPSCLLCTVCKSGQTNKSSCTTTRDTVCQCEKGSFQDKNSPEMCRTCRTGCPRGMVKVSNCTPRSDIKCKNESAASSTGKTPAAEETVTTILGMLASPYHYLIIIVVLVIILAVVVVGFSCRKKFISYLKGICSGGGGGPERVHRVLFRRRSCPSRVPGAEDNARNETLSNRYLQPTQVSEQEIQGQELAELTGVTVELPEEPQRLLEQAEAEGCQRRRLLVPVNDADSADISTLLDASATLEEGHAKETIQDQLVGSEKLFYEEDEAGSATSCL

DR5 = DR5 (Homo sapiens, UniProt O14763); details: compared with wildtype TRAIL; cited from earlier work
DcR1 = target: T3, DcR1 (Homo sapiens, UniProt O14798); details: compared with wildtype TRAIL; cited from earlier work
T3 sequence (O14798 26-236): T1 sequence (O14798 26-236)

Molecule: O=C1C=CC(=O)C(c2cc(Cl)ccc2Cl)=C1 [TPI-1]
- phosphorylation of ERK and STAT3 [1]: reverse the decrease

Molecule: N#CC(=C(/N)Sc1ccccc1N)/C(C#N)=C(\N)Sc1ccccc1N [U0126]
- NK cell cytotoxicity against cancer cells (K562 cells): significantly impaired
- expression of activating receptors NKp30, NKp46 and NKG2D (KHYG-1 cells): significantly reduced
- expression of activating receptors NKp46 and NKG2D (NK-92 cells): significantly reduced

Molecule: C[C@H]1COC2=C1C(=O)C(=O)c1c2ccc2c1CCCC2(C)C [cryptotanshinone]
- NK cell cytotoxicity against cancer cells (K562 cells): significantly impaired

Molecule: Wildtype TRAIL: wildtype TRAIL ligand
- Kd (DR4): > 2 nM
- Kd (decoy receptor DcR1): > 20 nM

B1: TRAIL variant: encoded by the wildtype TRAIL gene containing the D269H/E195R mutation, described in WO 2009/077857 (protein)
chain: MAMMEVQGGPSLGQTCVLIVIFTVLLQSLCVAVTYVYFTNELKQMQDKYSKSGIACFLKEDDSYWDPNDEESMNSPCWQVKWQLRQLVRKMILRTSEETISTVQEKQQNISPLVRERGPQRVAAHITGTRGRSNTLSSPNSKNEKALGRKINSWESSRSGHSFLSNLHLRNGELVIHEKGFYYIYSQTYFRFQERIKENTKNDKQMVQYIYKYTSYPDPILLMKSARNSCWSKDAEYGLYSIYQGGIFELKENDRIFVSVTNEHLIDMHHEASFFGAFLVG
- affinity for decoy receptor DcR2 (DcR2): reducing
- affinity for DR5 (DR5): significantly increases
- affinity for decoy receptor DcR1 (DcR1): reducing
